Measured values reported in PMC3639963, “A New Class of Small Molecule Inhibitor of BMP Signaling” (PLoS ONE, 2013).

Legend:
Assay in all cases: Nanosyn kinase profiling
Assay type in all cases: biochemical
Conditions in all cases: read-out: Percentage inhibition; for inhibition at 0.1 µM: 0.1 µM inhibitor; for inhibition at 1 µM: 1 µM inhibitor
[1] = target: T1, NEK1 (Homo sapiens, UniProt Q96PY6)
T1 construct: purchased Nanosyn (enzymatic panel); SGC in-house recombinant human kinases (DSF panel); Invitrogen (ALK1-6)
T1 sequence (Q96PY6 1-1258): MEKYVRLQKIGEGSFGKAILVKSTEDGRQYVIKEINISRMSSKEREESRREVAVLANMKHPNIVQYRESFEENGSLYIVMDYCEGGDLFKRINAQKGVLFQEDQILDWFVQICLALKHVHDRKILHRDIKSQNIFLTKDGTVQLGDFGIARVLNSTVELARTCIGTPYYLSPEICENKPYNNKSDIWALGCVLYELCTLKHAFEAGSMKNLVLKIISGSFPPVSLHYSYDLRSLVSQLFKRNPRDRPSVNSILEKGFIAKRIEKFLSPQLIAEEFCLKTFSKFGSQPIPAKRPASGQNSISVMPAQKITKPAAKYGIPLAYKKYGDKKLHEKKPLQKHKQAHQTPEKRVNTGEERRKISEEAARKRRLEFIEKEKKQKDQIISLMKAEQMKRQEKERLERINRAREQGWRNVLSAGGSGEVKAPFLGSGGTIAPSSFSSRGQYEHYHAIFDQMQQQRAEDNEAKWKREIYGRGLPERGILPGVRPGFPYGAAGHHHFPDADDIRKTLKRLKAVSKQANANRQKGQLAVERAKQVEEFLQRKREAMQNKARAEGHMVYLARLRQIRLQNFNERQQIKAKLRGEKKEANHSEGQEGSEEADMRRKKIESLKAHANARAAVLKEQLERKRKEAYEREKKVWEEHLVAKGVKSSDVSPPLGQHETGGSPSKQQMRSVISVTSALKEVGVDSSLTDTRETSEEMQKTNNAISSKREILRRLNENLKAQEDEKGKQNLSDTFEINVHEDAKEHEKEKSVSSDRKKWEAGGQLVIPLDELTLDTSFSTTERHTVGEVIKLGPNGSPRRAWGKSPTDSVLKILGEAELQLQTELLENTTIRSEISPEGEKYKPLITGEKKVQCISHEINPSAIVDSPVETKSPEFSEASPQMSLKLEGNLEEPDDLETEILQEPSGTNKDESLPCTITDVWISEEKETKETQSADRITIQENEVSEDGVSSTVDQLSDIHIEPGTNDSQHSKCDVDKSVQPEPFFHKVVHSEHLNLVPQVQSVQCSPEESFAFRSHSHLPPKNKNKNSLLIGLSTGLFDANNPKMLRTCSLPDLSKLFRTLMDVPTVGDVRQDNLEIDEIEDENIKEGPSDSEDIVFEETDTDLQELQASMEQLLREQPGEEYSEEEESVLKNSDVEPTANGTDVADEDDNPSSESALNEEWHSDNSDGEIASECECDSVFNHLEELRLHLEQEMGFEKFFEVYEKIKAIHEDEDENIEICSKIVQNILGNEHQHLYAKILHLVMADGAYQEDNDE
Summary of the method: (§1)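 Percent inhibition of each kinase was measured with the inhibitor at 0.1 µM and at 1 µM, as part of a 200-kinase human selectivity panel.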

[2] = target: T2, RON (Homo sapiens, UniProt Q04912)
T2 construct: purchased Nanosyn (enzymatic panel); SGC in-house recombinant human kinases (DSF panel); Invitrogen (ALK1-6)
T2 sequence (Q04912 25-1400): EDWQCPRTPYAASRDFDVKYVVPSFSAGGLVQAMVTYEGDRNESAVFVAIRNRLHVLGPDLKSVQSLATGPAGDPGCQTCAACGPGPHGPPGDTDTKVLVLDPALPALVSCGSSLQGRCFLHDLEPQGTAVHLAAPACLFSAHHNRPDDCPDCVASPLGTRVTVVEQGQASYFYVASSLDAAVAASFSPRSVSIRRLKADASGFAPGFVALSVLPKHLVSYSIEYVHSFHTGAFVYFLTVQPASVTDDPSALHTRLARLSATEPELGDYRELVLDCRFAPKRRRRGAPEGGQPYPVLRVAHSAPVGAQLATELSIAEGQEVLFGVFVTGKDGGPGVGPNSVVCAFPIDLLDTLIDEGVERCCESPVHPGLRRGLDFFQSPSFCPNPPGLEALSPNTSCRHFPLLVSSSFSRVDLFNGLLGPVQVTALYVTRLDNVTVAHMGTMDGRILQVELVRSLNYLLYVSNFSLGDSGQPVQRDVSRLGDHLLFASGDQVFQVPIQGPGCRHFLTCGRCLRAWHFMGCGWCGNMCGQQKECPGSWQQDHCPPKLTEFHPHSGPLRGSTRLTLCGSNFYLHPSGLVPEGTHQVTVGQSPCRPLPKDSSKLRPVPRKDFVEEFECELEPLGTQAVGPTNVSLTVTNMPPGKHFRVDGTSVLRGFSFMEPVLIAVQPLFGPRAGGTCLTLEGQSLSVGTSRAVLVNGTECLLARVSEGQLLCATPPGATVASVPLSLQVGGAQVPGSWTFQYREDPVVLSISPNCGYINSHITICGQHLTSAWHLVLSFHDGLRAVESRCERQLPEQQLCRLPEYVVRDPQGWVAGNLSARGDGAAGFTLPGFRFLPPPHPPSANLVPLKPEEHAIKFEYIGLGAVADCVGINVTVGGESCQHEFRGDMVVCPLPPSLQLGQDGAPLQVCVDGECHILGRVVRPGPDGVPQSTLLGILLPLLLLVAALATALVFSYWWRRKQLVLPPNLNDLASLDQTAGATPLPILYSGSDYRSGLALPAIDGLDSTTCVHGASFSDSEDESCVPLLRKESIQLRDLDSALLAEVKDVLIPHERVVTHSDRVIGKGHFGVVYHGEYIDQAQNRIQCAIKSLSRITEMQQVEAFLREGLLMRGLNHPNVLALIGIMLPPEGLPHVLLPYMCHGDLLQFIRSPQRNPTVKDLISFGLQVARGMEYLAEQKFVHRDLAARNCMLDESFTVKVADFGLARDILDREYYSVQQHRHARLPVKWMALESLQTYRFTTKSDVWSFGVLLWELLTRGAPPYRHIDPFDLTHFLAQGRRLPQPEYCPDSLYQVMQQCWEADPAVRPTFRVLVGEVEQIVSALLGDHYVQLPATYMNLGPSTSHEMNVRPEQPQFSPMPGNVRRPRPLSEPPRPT
Summary of the method: as §1

[3] = target: T3, IKK-ε (Homo sapiens, UniProt Q14164)
T3 construct: purchased Nanosyn (enzymatic panel); SGC in-house recombinant human kinases (DSF panel); Invitrogen (ALK1-6)
T3 sequence (Q14164 1-716): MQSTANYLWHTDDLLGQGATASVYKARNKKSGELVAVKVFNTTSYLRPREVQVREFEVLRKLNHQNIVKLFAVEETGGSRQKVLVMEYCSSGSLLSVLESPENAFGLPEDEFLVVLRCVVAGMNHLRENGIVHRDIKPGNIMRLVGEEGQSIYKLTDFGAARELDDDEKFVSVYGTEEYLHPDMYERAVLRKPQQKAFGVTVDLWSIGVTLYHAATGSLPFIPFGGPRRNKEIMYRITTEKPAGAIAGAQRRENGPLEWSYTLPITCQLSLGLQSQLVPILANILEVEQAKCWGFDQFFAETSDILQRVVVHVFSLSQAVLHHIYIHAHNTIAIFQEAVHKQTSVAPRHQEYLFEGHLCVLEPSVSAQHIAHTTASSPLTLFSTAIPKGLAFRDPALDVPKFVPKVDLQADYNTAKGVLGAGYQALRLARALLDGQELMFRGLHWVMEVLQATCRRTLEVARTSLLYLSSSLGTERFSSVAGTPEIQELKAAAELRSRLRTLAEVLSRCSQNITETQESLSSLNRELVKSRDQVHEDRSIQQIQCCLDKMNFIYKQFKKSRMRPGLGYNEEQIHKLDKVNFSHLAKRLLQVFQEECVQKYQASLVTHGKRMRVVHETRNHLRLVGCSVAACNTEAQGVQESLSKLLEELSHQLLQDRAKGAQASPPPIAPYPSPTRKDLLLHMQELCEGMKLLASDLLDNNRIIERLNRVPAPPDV
Summary of the method: as §1

[4] = target: T4, ITK (Homo sapiens, UniProt Q08881)
T4 construct: purchased Nanosyn (enzymatic panel); SGC in-house recombinant human kinases (DSF panel); Invitrogen (ALK1-6)
T4 sequence (Q08881 1-620): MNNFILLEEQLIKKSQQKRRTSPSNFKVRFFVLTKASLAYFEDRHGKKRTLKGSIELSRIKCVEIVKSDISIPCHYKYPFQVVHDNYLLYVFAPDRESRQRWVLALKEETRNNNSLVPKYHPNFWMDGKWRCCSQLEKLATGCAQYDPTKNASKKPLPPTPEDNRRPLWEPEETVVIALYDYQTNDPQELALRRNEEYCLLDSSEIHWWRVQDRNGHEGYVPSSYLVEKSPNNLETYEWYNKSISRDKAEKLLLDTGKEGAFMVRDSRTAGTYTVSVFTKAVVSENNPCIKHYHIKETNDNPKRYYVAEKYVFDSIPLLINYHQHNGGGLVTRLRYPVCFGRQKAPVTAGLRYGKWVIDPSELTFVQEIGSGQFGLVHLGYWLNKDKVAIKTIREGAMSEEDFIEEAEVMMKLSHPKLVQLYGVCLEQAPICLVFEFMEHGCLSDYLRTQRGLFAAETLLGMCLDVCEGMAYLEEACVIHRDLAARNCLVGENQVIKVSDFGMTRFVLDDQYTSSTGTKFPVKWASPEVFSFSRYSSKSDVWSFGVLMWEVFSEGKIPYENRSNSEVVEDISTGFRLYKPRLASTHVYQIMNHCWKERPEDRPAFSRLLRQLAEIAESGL
Summary of the method: as §1

[5] = target: T5, PAK2 (Homo sapiens, UniProt Q13177)
T5 construct: purchased Nanosyn (enzymatic panel); SGC in-house recombinant human kinases (DSF panel); Invitrogen (ALK1-6)
T5 sequence (Q13177 whole entry): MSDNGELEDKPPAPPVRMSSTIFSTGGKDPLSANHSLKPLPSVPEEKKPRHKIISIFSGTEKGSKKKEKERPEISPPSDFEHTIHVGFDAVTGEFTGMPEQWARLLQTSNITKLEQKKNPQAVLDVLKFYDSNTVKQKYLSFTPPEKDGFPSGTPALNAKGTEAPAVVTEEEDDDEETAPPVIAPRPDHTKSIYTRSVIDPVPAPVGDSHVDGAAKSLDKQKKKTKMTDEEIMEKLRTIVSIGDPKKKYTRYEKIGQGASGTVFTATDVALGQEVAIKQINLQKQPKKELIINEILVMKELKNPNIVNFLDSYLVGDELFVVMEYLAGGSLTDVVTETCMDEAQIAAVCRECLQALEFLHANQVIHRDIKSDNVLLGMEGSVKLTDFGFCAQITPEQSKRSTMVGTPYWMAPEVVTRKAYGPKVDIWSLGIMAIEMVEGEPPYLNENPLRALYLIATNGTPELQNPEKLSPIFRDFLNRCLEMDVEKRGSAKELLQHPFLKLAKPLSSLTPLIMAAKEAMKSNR
Summary of the method: as §1

COc1cc(-c2cc(-c3cccc(O)c3)cnc2N)cc(OC)c1OC [K02288, 3-[6-amino-5-(3,4,5-trimethoxy-phenyl)-pyridin-3-yl]-phenol]
inhibition at 0.1 µM [1]: -1% | inhibition at 1 µM [1]: 0.8% | inhibition at 0.1 µM [2]: 3% | inhibition at 1 µM [2]: -1% | inhibition at 0.1 µM [3]: -6% | inhibition at 1 µM [3]: -2% | inhibition at 0.1 µM [4]: 0% | inhibition at 1 µM [4]: 0% | inhibition at 0.1 µM [5]: -1% | inhibition at 1 µM [5]: -1%

c1ccc2c(-c3cnn4cc(-c5ccc(N6CCNCC6)cc5)cnc34)ccnc2c1 [LDN-193189]
inhibition at 0.1 µM [1]: 2.1% | inhibition at 1 µM [1]: 3.4% | inhibition at 0.1 µM [2]: -2% | inhibition at 1 µM [2]: 12% | inhibition at 0.1 µM [3]: 7.5% | inhibition at 1 µM [3]: 7.4% | inhibition at 0.1 µM [4]: 0.9% | inhibition at 1 µM [4]: 3.6% | inhibition at 0.1 µM [5]: 0% | inhibition at 1 µM [5]: 0%
